These are literature values, as cited in PMC7211195 (Investigational New Drugs, 2019).

Molecules are shown by their SMILES. Where two headings read alike, the source gives them in different places.

On the set-up of data set [1]: method as in PMID 19276246. Conditions: cited from earlier work; for increase in concentration in the brain: abcb1a/1b;abcg2(−/−) mice.
For data set [2] the following is noted: cited from earlier work.
For data set [3] the following is noted: in rats, cited from earlier work.
Details of data set [4]: method as in PMID 24113148. Conditions: cited from earlier work.

Regarding `Cc1nc(Nc2ncc(C(=O)Nc3c(C)cccc3Cl)s2)cc(N2CCN(CCO)CC2)n1` [dasatinib], the “brain-to-plasma ratio increase with elacridar” value in data set [1] (WT mice) is recorded as 4.4 times. Also, the “increase in concentration in the brain” value in data set [1] (intraperitoneal administration) was 22.7 times; in data set [1] (oral administration), 13.2 times.

`C[C@@H](Oc1cc(-c2cnn(C3CCNCC3)c2)cnc1N)c1c(Cl)ccc(F)c1Cl` [crizotinib]: the “brain accumulation after 24 h, times greater” value in data set [2] (5 mg/kg b.w., knockout vs WT mice) is “approximately 40 times”. Besides, the “higher BP exposure than WT mice” value in data set [2] (abcb1a/1b(−/−) and abcb1a/1b;abcg2(−/−) mice, 5 mg/kg b.w.) was “approximately 2 times”. Also, in data set [2] (abcb1a/1b(−/−) mice, dose increased ten-fold), the “brain accumulation, times greater than in WT mice” value was “approximately 70 times”.

As for `COc1cc2c(cc1OC)CN(CCc1ccc(NC(=O)c3cccc4c(=O)c5cccc(OC)c5[nH]c34)cc1)CC2` [Elacridar, 9,10-dihydro-5-methoxy-9-oxo-N-[4-[2-(1,2,3,4-tetrahydro-6,7-dimethoxy-2-isoquinolinyl)ethyl]phenyl]-4-acridine-carboxamide], the “bound to plasma proteins” value in data set [3] (ref 16) was 98.1 ± 1.7%; in data set [3] (ref 30) it was 99.0 ± 0.6%.

As to `CCN(CC)CCNC(=O)c1c(C)[nH]c(/C=C2\C(=O)Nc3ccc(F)cc32)c1C` [sunitinib], the DTIBT is 2.1 in data set [4] (bcrp1(−/−) mice), 3.9 in data set [4] (mdr1a/b(−/−) mice) and 48.9 in data set [4] (mice with both knockout genes).
